Legend:
[1] = system: peptic ulcer disease; conditions: clinical evaluation; cited from earlier work
[2] = system: gastric acid secretion; assay: Gastric Antisecretory Activity in the Heidenhain Pouch Dog; type: in vivo
Description: Prior to surgery, hematology and blood chemistry profiles are obtained and an assessment made as to the general health of selected female dogs. Dogs are vaccinated with Tissue Vax 5 (DHLP--Pitman-Moore) and housed in general animal quarters for four weeks' observation so incipient diseases may become apparent. Dogs are fasted with water ad libitum 24 hours prior to surgery.
Anesthesia is induced with Sodium Pentothal (Abbott) 25-30 mg/kg iv. Subsequent anesthesia is maintained with methoxyflurane (Pitman-Moore). A mid-line linea alba incision from xiphoid to umbilicus provides good exposure and ease of closure. The stomach is pulled up into the operative field, the greater curvature stretched out at multiple points and clamps placed along the selected line of incision. The pouch is made from the corpus of the stomach so that true parietal cell juice is obtained. About 30% of the corpus volume is resected. The cannula is made of light-weight,biologically-inert material such as nylon or Delrin with dimensions and attachments after DeVito and Harkins [J. Appl. Physiol., 14, 138 (1959)]. Post operatively, dogs are medicated with antibiotics and an analgesic. They are allowed 2-3 months for recovery. Experiments are carried out in the following way: Dogs are fasted overnight (~18 hours) with water ad libitum prior to each experiment. The dogs are placed in a sling and a saphenous vein cannulated for drug administration. Histamine as the base (100 μg/kg/hr) and chlorpheniramine maleate (0.25 mg/kg/hr) are infused continuously (in a volume of 6 ml/hr) with a Harvard infusion pump.
Ninety minutes' infusion are allowed for the dogs to reach a steady state of acid output. At this time the drug or normal saline (control) is administered concomitantly with the secretagogue in a volume of 0.5 ml/kg over a 30 second period. When oral studies are to be carried out, the drug is administered via gastric gavage in a volume of 5 ml/kg. Infusion of the secretagogue is continued and 15 minute samples of the gastric juice are taken for 4.5 hours. Each sample is measured to the nearest 0.5 ml and titratable acidity is determined by titrating a 1 ml sample to pH 7.0 with 0.2 N NaOH, using an Autoburet and an electrometric pH meter (Radiometer).Titratable acid output is calculated in microequivalents by multiplying the volume in milliliters by the acid concentration in milliequivalents per liter.
Results are expressed as percent inhibition relative to control readings. Dose response curves are constructed and ED50 values are calculated by regression analyses. From 3 to 5 dogs are used at each dose level and a minimum of three dosage levels are utilized for determination of a dose response curve.

[3] = system: gastric acid secretion; assay: Gastric Antisecretory Activity in the Gastric Fistula Rat; type: in vivo, rat (male Long Evans); conditions: sc; for ED50: read-out: ED50 sc
Description: Male Long Evans rats weighing about 240-260 grams at the time of cannula implantation are used. […] The fistula components are designed and the operative procedure is carried out exactly as described in the above reference. Post operatively the animals are individually housed in solid bottom cages with sawdust and are allowed food and water ad libitum throughout the entire recovery period. Animals are not used for test purposes for at least 15 days after the operative procedure. The animals are fasted but allowed water ad libitum for 20 hours before the testing procedure is to begin. […] The catheter is then screwed into the cannula in place of the plugging screw and the rat is placed in a clear plastic rectangular cage measuring 40 cm long, 15 cm wide and 13 cm high. The bottom of the cage has a slit approximately 1.5 cm wide and 25 cm long running down the center to accommodate the catheter which hangs through it. In this way the rat is not restricted and can move freely about the cage during collection periods. The remainder of the assay is carried out as described by Ridley et al. [Research Comm. Chem. Path. […] Gastric secretions collected during the first hour after washing the stomach are discarded as they may be contaminated. For oral evaluation, the catheter is then removed from the cannula and replaced with the plugging screw. […] After this time the plugging screw is removed and replaced with a catheter to which a small plastic vial has been attached to collect the gastric secretions. A two hour sample is collected (this represents the control secretion), the catheter removed and replaced with the plugging screw. […] Forty-five minutes later the plugging screw is again removed, replaced with the catheter attached to a small plastic vial and another 2 hour sample is collected. The secretions in the second sample are compared to those of the control sample in order to determine the effects of the test drug. […] Titratable acid output is calculated in microequivalents by multiplying the volume in milliliters by the acid concentration in milliequivalents per liter. Results are expressed as percent inhibition relative to control readings. Dose response curves are constructed and ED50 values are calculated by regression analyses. At least three rats are used at each dosage level and a minimum of three dosage levels are utilized for determination of a dose response curve.

[4] = system: agranulocytosis; conditions: in vivo; cited from earlier work
[5] = system: H2-receptor; conditions: cited from earlier work; for potency / effectiveness as H2-antagonist versus other H2-antagonist: compared with burimamide or metiamide
[6] = cited from earlier work

CNC(=NC#N)NCCSCc1nc[nH]c1C [Cimetidine]
therapeutic effect in treatment of peptic ulcer disease [1]: effective therapeutic agent in the treatment of peptic ulcer disease | ED50 ([2]; Canis lupus familiaris, iv): 2.18 µmol/kg | ED50 ([2]; Canis lupus familiaris, po): ~3.3 µmol/kg | ED50 ([2]; oral): 3.29 µmol/kg | ED50 ([3]; Rattus norvegicus): 3.8 µmol/kg | toxicity (agranulocytosis) [4]: without producing agranulocytosis | potency / effectiveness as H2-antagonist versus other H2-antagonist [5]: as effective an H2 -antagonist as metiamide

CNC(=S)NCCCCc1cnc[nH]1 [Burimamide]
oral absorption [6]: oral absorption is poor | inhibition of gastric secretion / clinical effectiveness ([5]; in animals and man): inhibits gastric secretion in animals and man

Nc1c(NCCCOc2cccc(CN3CCCCC3)c2)c(=O)c1=O [Example 1, 1-Amino-2-[3-(3-piperidinomethylphenoxy)propylamino]cyclobutene-3,4-dione]
ED50 ([2]; Canis lupus familiaris, oral, read-out: ED50): 0.175 µmol/kg | Potency Ratio (cimetidine = 1.0) ([2]; iv): 91 | Potency Ratio (cimetidine = 1.0) ([2]; oral): 19 | Potency Ratio (cimetidine = 1.0) ([3]; Gastric Fistula Rat): 130 | ED50 ([3]; Gastric Fistula Rat): 0.029 µmol/kg

CNC(=S)NCCSCc1nc[nH]c1C [Metiamide]
toxicity (agranulocytosis) [4]: toxicity (agranulocytosis) | potency / effectiveness as H2-antagonist versus other H2-antagonist [5]: more potent than burimamide | oral activity in man ([5]; oral, man): orally active in man

CN(C)Cc1ccc(CSCCNc2c(N)c(=O)c2=O)o1 [Example 2, 1-Amino-2-{2-[(5-dimethylaminomethyl-2-furyl)methylthio]ethylamino}cyclobutene-3,4-dione]
Potency Ratio (cimetidine = 1.0) ([3]; Gastric Fistula Rat): ~ 2 | ED50 ([3]; Gastric Fistula Rat): ~2 µmol/kg

Source: patent US4395553A, “Chemical compounds” (Bristol-Myers Company, priority 1982, dated 1983)
